Reference: PubChem BioAssay AID2060886 (Molecular Pharmacology Branch, DTP, NCI, 2025)
One block for each compound: values may come before it.

Test system: 653999-131-R-J2-PDC complex spheroids, growth inhibition
Assay: Anticancer human tumor 653999-131-R-J2-PDC patient-derived lung adenocarcinoma cell line growth inhibition [RAS]
Conditions: for IC50: curve of first compound; for viability, T/C: stronger effect = lower value
Procedure, shortened: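 Multi-cell-type spheroids: tumor cells plus HUVEC endothelial cells and mesenchymal stem cells. RAS-pathway inhibitors were combined with targeted agents, each dosed in half-log steps down from clinical Cmax, or from 10 microM when Cmax was unknown.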

[1] = second compound 0.0316 µM, first compound 0.0316 µM
[2] = second compound 0.0316 µM, first compound 0.1 µM
[3] = second compound 0.0316 µM, first compound 0.316 µM
[4] = second compound 0.0316 µM, first compound 1 µM
[5] = second compound 0.0316 µM, first compound 3.16 µM
[6] = second compound 0.0316 µM, first compound 10 µM
[7] = second compound 0.1 µM, first compound 0.0316 µM
[8] = second compound 0.1 µM, first compound 0.1 µM
[9] = second compound 0.1 µM, first compound 0.316 µM
[10] = second compound 0.1 µM, first compound 1 µM
[11] = second compound 0.1 µM, first compound 3.16 µM
[12] = second compound 0.1 µM, first compound 10 µM
[13] = second compound 0.316 µM, first compound 0.0316 µM
[14] = second compound 0.316 µM, first compound 0.1 µM
[15] = second compound 0.316 µM, first compound 0.316 µM
[16] = second compound 0.316 µM, first compound 1 µM
[17] = second compound 0.316 µM, first compound 3.16 µM
[18] = second compound 0.316 µM, first compound 10 µM
[19] = second compound 1 µM, first compound 0.0316 µM
[20] = second compound 1 µM, first compound 0.1 µM
[21] = second compound 1 µM, first compound 0.316 µM
[22] = second compound 1 µM, first compound 1 µM
[23] = second compound 1 µM, first compound 3.16 µM
[24] = second compound 1 µM, first compound 10 µM
[25] = second compound 3.16 µM, first compound 0.0316 µM
[26] = second compound 3.16 µM, first compound 0.1 µM
[27] = second compound 3.16 µM, first compound 0.316 µM
[28] = second compound 3.16 µM, first compound 1 µM
[29] = second compound 3.16 µM, first compound 3.16 µM
[30] = second compound 3.16 µM, first compound 10 µM
[31] = second compound 10 µM, first compound 0.0316 µM
[32] = second compound 10 µM, first compound 0.1 µM
[33] = second compound 10 µM, first compound 0.316 µM
[34] = second compound 10 µM, first compound 1 µM
[35] = second compound 10 µM, first compound 3.16 µM
[36] = second compound 10 µM, first compound 10 µM
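Note: spheroids exposed to the agents for seven days before the readout.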

IC50 (second compound 0.0316 µM): > 10000 nM | IC50 (second compound 0.1 µM): > 10000 nM | IC50 (second compound 0.316 µM): > 10000 nM | IC50 (second compound 1 µM): > 10000 nM | IC50 (second compound 3.16 µM): < 31.6 nM | IC50 (second compound 10 µM): < 31.6 nM
SMILES: C[C@@H](NC(=O)c1ncnc(N)c1Cl)c1ncc(C(=O)Nc2cc(C(F)(F)F)c(Cl)cn2)s1 + C#Cc1c(F)ccc2cc(O)cc(-c3ncc4c(N5CC6CCC(C5)N6)nc(OCC56CCCN5CC(F)C6)nc4c3F)c12
viability, T/C [1]: 102% | viability, T/C [2]: 109% | viability, T/C [3]: 102% | viability, T/C [4]: 100% | viability, T/C [5]: 100% | viability, T/C [6]: 73.5% | viability, T/C [7]: 91% | viability, T/C [8]: 91.6% | viability, T/C [9]: 90% | viability, T/C [10]: 78.3% | viability, T/C [11]: 71% | viability, T/C [12]: 77.2% | viability, T/C [13]: 77.2% | viability, T/C [14]: 75% | viability, T/C [15]: 87.8% | viability, T/C [16]: 75% | viability, T/C [17]: 88.3% | viability, T/C [18]: 69.1% | viability, T/C [19]: 44.5% | viability, T/C [20]: 68.3% | viability, T/C [21]: 72.5% | viability, T/C [22]: 44.6% | viability, T/C [23]: 60.1% | viability, T/C [24]: 54.7% | viability, T/C [25]: 40.3% | viability, T/C [26]: 39.7% | viability, T/C [27]: 37% | viability, T/C [28]: 44.9% | viability, T/C [29]: 51.5% | viability, T/C [30]: 41.8% | viability, T/C [31]: 22% | viability, T/C [32]: 21.2% | viability, T/C [33]: 49.3% | viability, T/C [34]: 45.9% | viability, T/C [35]: 30.5% | viability, T/C [36]: 22%

IC50 (second compound 0.00316 µM): 126 nM | IC50 (second compound 0.01 µM): 61.8 nM | IC50 (second compound 0.0316 µM): 84.6 nM | IC50 (second compound 0.1 µM): 47.2 nM | IC50 (second compound 0.316 µM): 93.4 nM | IC50 (second compound 1 µM): 90.3 nM
SMILES: Nc1ccn(C2OC(CO)C(O)C2(F)F)c(=O)n1 (stereo unspecified) + C=CC(=O)N1CCN(c2nc(OCC3CCCN3C)nc3c(F)c(-c4nc(N)cc(C)c4C(F)(F)F)c(Cl)cc23)C(C)C1
viability, T/C (second compound 0.00316 µM, first compound 0.00316 µM): 86.5% | viability, T/C (second compound 0.00316 µM, first compound 0.01 µM): 82.4% | viability, T/C (second compound 0.00316 µM, first compound 0.0316 µM): 61.8% | viability, T/C (second compound 0.00316 µM, first compound 0.1 µM): 56% | viability, T/C (second compound 0.00316 µM, first compound 0.316 µM): 38.7% | viability, T/C (second compound 0.00316 µM, first compound 1 µM): 32% | viability, T/C (second compound 0.01 µM, first compound 0.00316 µM): 107% | viability, T/C (second compound 0.01 µM, first compound 0.01 µM): 78.3% | viability, T/C (second compound 0.01 µM, first compound 0.0316 µM): 54% | viability, T/C (second compound 0.01 µM, first compound 0.1 µM): 45.9% | viability, T/C (second compound 0.01 µM, first compound 0.316 µM): 41.2% | viability, T/C (second compound 0.01 µM, first compound 1 µM): 29.7% | viability, T/C (second compound 0.0316 µM, first compound 0.00316 µM): 80.3% | viability, T/C (second compound 0.0316 µM, first compound 0.01 µM): 79.8% | viability, T/C [1]: 67.8% | viability, T/C [2]: 46.6% | viability, T/C [3]: 38.2% | viability, T/C [4]: 33.8% | viability, T/C (second compound 0.1 µM, first compound 0.00316 µM): 84.3% | viability, T/C (second compound 0.1 µM, first compound 0.01 µM): 77.3% | viability, T/C [7]: 55.7% | viability, T/C [8]: 38.2% | viability, T/C [9]: 40.1% | viability, T/C [10]: 30.5% | viability, T/C (second compound 0.316 µM, first compound 0.00316 µM): 94.6% | viability, T/C (second compound 0.316 µM, first compound 0.01 µM): 80.4% | viability, T/C [13]: 59.9% | viability, T/C [14]: 48.2% | viability, T/C [15]: 42.2% | viability, T/C [16]: 29.8% | viability, T/C (second compound 1 µM, first compound 0.00316 µM): 89.5% | viability, T/C (second compound 1 µM, first compound 0.01 µM): 81.4% | viability, T/C [19]: 60.6% | viability, T/C [20]: 48.9% | viability, T/C [21]: 42.2% | viability, T/C [22]: 33.7%

IC50 (second compound 0.0316 µM): > 10000 nM | IC50 (second compound 0.1 µM): 1390 nM | IC50 (second compound 0.316 µM): < 31.6 nM | IC50 (second compound 1 µM): < 31.6 nM | IC50 (second compound 3.16 µM): < 31.6 nM | IC50 (second compound 10 µM): < 31.6 nM
SMILES: NC1c2ccccc2OC12CCN(c1cnc3c(N4CCCc5ncccc54)n[nH]c3n1)CC2 (stereo unspecified) + C#Cc1c(F)ccc2cc(O)cc(-c3ncc4c(N5CC6CCC(C5)N6)nc(OCC56CCCN5CC(F)C6)nc4c3F)c12
viability, T/C [1]: 72.8% | viability, T/C [2]: 67.5% | viability, T/C [3]: 64.5% | viability, T/C [4]: 72.2% | viability, T/C [5]: 71.3% | viability, T/C [6]: 60.2% | viability, T/C [7]: 64.5% | viability, T/C [8]: 75.4% | viability, T/C [9]: 60.1% | viability, T/C [10]: 53.2% | viability, T/C [11]: 44.6% | viability, T/C [12]: 41.1% | viability, T/C [13]: 48% | viability, T/C [14]: 50.4% | viability, T/C [15]: 40.4% | viability, T/C [16]: 42.7% | viability, T/C [17]: 32.6% | viability, T/C [18]: 45.8% | viability, T/C [19]: 41.7% | viability, T/C [20]: 34.8% | viability, T/C [21]: 33.9% | viability, T/C [22]: 32.4% | viability, T/C [23]: 32.7% | viability, T/C [24]: 19.5% | viability, T/C [25]: 30.3% | viability, T/C [26]: 25.8% | viability, T/C [27]: 16.9% | viability, T/C [28]: 18.1% | viability, T/C [29]: 18.7% | viability, T/C [30]: 13% | viability, T/C [31]: 12% | viability, T/C [32]: 7.13% | viability, T/C [33]: 7.02% | viability, T/C [34]: 6.33% | viability, T/C [35]: 7.29% | viability, T/C [36]: 7.2%
